Laboratory results published in paper PMC11822212, “High-throughput screening identifies Aurora kinase B as a critical therapeutic target for Merkel cell carcinoma” (Nature Communications, 2025).
Where two headings read alike, the source gives them in different places.

Columns and labels:
[1] = test system: VP-MCC cell lines (WAGA, MKL-1, MKL-2); assay: qHTS cell viability, VP-MCC cell lines as a group (mean AUC, VP.MCC.avg); type: cell-based, human
[2] = test system: six MCC cell lines and four control cell lines; assay: qHTS cell viability, all 10 cell lines screened; type: cell-based
MCC26 cells (VN-MCC) = assay: qHTS cell viability (CellTiter-Glo, 72 h; primary and follow-up small molecule screen); type: cell-based, human
MCC13 cells (VN-MCC) = assay: as above; type: cell-based, human
[3] = test system: VN-MCC cell lines (MCC13, MCC26, UISO); assay: qHTS cell viability, VN-MCC cell lines as a group (mean AUC, VN.MCC.avg); type: cell-based, human
HEK293T cells = assay: qHTS cell viability (CellTiter-Glo, 72 h; primary screen), control cell line; type: cell-based, human
MKL-1 cells (VP-MCC) = assay: qHTS cell viability (CellTiter-Glo, 72 h; primary and follow-up small molecule screen); type: cell-based, human
[4] = test system: MCC cell lines (WAGA, MKL-1, MKL-2, MCC13, MCC26, UISO); assay: qHTS cell viability, all six MCC cell lines as a group (mean AUC, MCC.avg); type: cell-based, human
CRL-7250 cells = assay: qHTS cell viability (CellTiter-Glo, 72 h; primary screen), control cell line; type: cell-based
NIH-3T3 cells = assay: as above; type: cell-based, mouse
UISO cells (VN-MCC) = assay: qHTS cell viability (CellTiter-Glo, 72 h; primary and follow-up small molecule screen); type: cell-based, human
MKL-2 cells (VP-MCC) = assay: as above; type: cell-based, human
HACAT cells = assay: qHTS cell viability (CellTiter-Glo, 72 h; primary screen), control cell line; type: cell-based, human
WAGA cells (VP-MCC) = assay: qHTS cell viability (CellTiter-Glo, 72 h; primary and follow-up small molecule screen); type: cell-based, human
[5] = test system: control cell lines (HACAT, HEK293T, CRL-7250, NIH-3T3); assay: qHTS cell viability, control cell lines as a group (mean AUC, Control.avg); type: cell-based
[6] = NPC library, mean AUC of VP-MCC cell lines
[7] = NPC library, therapeutic window: Control avg AUC minus VP-MCC avg AUC
[8] = NPC library, therapeutic window: Control avg AUC minus MCC avg AUC
[9] = NPC library, qHTS dose-response AUC, MCC13
[10] = NPC library, mean AUC of VN-MCC cell lines
[11] = NPC library, therapeutic window: Control avg AUC minus VN-MCC avg AUC
[12] = NPC library, qHTS dose-response AUC, MKL1
[13] = NPC library, mean AUC of six MCC cell lines
[14] = NPC library, qHTS dose-response AUC, CRL7250 control
[15] = NPC library, qHTS dose-response AUC, NIH3T3 control
[16] = NPC library, qHTS dose-response AUC, UISO
[17] = NPC library, qHTS dose-response AUC, MKL2
[18] = NPC library, qHTS dose-response AUC, HACAT control
[19] = NPC library, qHTS dose-response AUC, WAGA
[20] = NPC library, mean AUC of control cell lines
[21] = NPC library, 8-point DRC, area under dose-response curve
[22] = NPC library, 8-point DRC, control cell line

In the case of `O=C(CCCN1CCC(O)(c2ccc(Br)cc2)CC1)c1ccc(F)cc1` [Bromperidol], the VP-MCC_Avg_AUC [1, 6] is reported as 121.377, the Control-VP-MCC [1, 7] is reported as 345.285 and the Control-MCC [2, 8] is reported as 161.551. The MCC26_AUC (MCC26 cells (VN-MCC); NPC library; qHTS dose-response AUC, MCC26) was 508.837, the MCC26_AUC (MCC26 cells (VN-MCC); area under the dose-response curve, MCC26 cells; AUC<450 = reduced viability) was 508.837 and the “Area under the dose-response curve (AUC) MCC26 Replicate 1” value (MCC26 cells (VN-MCC); follow-up screen; MCC26; replicate 1) was 451.5. The “Area under the dose-response curve (AUC) MCC26 Replicate 2” value (MCC26 cells (VN-MCC); follow-up screen; MCC26; replicate 2) was 430.2, the “Area under the dose-response curve (AUC) MCC26 Replicate 3” value (MCC26 cells (VN-MCC); follow-up screen; MCC26; replicate 3) was 459.8 and the MCC13_AUC (MCC13 cells (VN-MCC); [9]) was 492.435. The MCC13_AUC (MCC13 cells (VN-MCC); area under the dose-response curve, MCC13 cells, AUC<450 = reduced viability) was 492.435, the “Area under the dose-response curve (AUC) MCC13 Replicate 1” value (MCC13 cells (VN-MCC); follow-up screen, MCC13, replicate 1) was 481.5 and the “Area under the dose-response curve (AUC) MCC13 Replicate 2” value (MCC13 cells (VN-MCC); follow-up screen, MCC13, replicate 2) was 447.1. The “Area under the dose-response curve (AUC) MCC13 Replicate 3” value (MCC13 cells (VN-MCC); follow-up screen, MCC13, replicate 3) was 475.2, the VN-MCC_Avg_AUC [3, 10] was 488.845 and the Control-VN-MCC [3, 11] was -22.1834. For the same compound, the HEK293T_AUC (HEK293T cells; NPC library; qHTS dose-response AUC, HEK293T control) was 458.67, the HEK293T_AUC (HEK293T cells; area under the dose-response curve, HEK293T control cells; AUC<450 = reduced viability) was 458.67 and the MKL1_AUC (MKL-1 cells (VP-MCC); [12]) was 166.857. For the same compound, the MKL1_AUC (MKL-1 cells (VP-MCC); area under the dose-response curve, MKL-1 cells, AUC<450 = reduced viability) was 166.857, the “Area under the dose-response curve (AUC) MKL-1 Replicate 1” value (MKL-1 cells (VP-MCC); follow-up screen, MKL-1, replicate 1) was 478.5 and the “Area under the dose-response curve (AUC) MKL-1 Replicate 2” value (MKL-1 cells (VP-MCC); follow-up screen, MKL-1, replicate 2) was 458.4. The “Area under the dose-response curve (AUC) MKL-1 Replicate 3” value (MKL-1 cells (VP-MCC); follow-up screen, MKL-1, replicate 3) was 486.1, the MCC_Avg_AUC [4, 13] was 305.111 and the CRL7250_AUC (CRL-7250 cells; [14]) was 469.585. It also gave a CRL7250_AUC (CRL-7250 cells; area under the dose-response curve, CRL7250 control cells, AUC<450 = reduced viability) of 469.584, an NIH3T3_AUC (NIH-3T3 cells; [15]) of 484.97 and an NIH3T3_AUC (NIH-3T3 cells; area under the dose-response curve, NIH3T3 control cells, AUC<450 = reduced viability) of 484.97. The UISO_AUC (UISO cells (VN-MCC); [16]) was 465.264, the UISO_AUC (UISO cells (VN-MCC); area under the dose-response curve, UISO cells, AUC<450 = reduced viability) was 465.264 and the “Area under the dose-response curve (AUC) UISO Replicate 1” value (UISO cells (VN-MCC); follow-up screen, UISO, replicate 1) was 462.9. For the same compound, the “Area under the dose-response curve (AUC) UISO Replicate 2” value (UISO cells (VN-MCC); follow-up screen, UISO, replicate 2) was 471.4, the “Area under the dose-response curve (AUC) UISO Replicate 3” value (UISO cells (VN-MCC); follow-up screen, UISO, replicate 3) was 450.6 and the MKL2_AUC (MKL-2 cells (VP-MCC); [17]) was 116.273. The MKL2_AUC (MKL-2 cells (VP-MCC); area under the dose-response curve, MKL-2 cells, AUC<450 = reduced viability) was 116.273, the “Area under the dose-response curve (AUC) MKL-2 Replicate 1” value (MKL-2 cells (VP-MCC); follow-up screen, MKL-2, replicate 1) was 432.2 and the “Area under the dose-response curve (AUC) MKL-2 Replicate 2” value (MKL-2 cells (VP-MCC); follow-up screen, MKL-2, replicate 2) was 463.9. The “Area under the dose-response curve (AUC) MKL-2 Replicate 3” value (MKL-2 cells (VP-MCC); follow-up screen, MKL-2, replicate 3) was 462.5, the HACAT_AUC (HACAT cells; [18]) was 453.423 and the HACAT_AUC (HACAT cells; area under the dose-response curve, HACAT control cells, AUC<450 = reduced viability) was 453.423. The WAGA_AUC (WAGA cells (VP-MCC); [19]) was 81.0002, the WAGA_AUC (WAGA cells (VP-MCC); area under the dose-response curve, WAGA cells, AUC<450 = reduced viability) was 81.0002 and the “Area under the dose-response curve (AUC) WAGA Replicate 1” value (WAGA cells (VP-MCC); follow-up screen, WAGA, replicate 1) was 490.2. For the same compound, the “Area under the dose-response curve (AUC) WAGA Replicate 2” value (WAGA cells (VP-MCC); follow-up screen, WAGA, replicate 2) was 473.6, the “Area under the dose-response curve (AUC) WAGA Replicate 3” value (WAGA cells (VP-MCC); follow-up screen, WAGA, replicate 3) was 491.6 and the Control_Avg_AUC [5, 20] was 466.662.
Compound `CN(C)CCc1c[nH]c2ccc(O)cc12` [Bufotenine] has a Control-VP-MCC [1] of 66.7991, a VP-MCC_Avg_AUC [1] of 426.671 and a Control-MCC [2] of 65.5458. It also gave an MCC26_AUC (MCC26 cells (VN-MCC)) of 406.205, an MCC13_AUC (MCC13 cells (VN-MCC)) of 457.919 and a Control-VN-MCC [3] of 64.2925. It also gave a VN-MCC_Avg_AUC [3] of 429.178, an HEK293T_AUC (HEK293T cells) of 488.2 and an MKL1_AUC (MKL-1 cells (VP-MCC)) of 439.853. It also gave an MCC_Avg_AUC [4] of 427.925, a CRL7250_AUC (CRL-7250 cells) of 497.008 and an NIH3T3_AUC (NIH-3T3 cells) of 494.482. It also gave a UISO_AUC (UISO cells (VN-MCC)) of 423.411, an MKL2_AUC (MKL-2 cells (VP-MCC)) of 417.248 and an HACAT_AUC (HACAT cells) of 494.192. The WAGA_AUC (WAGA cells (VP-MCC)) was 422.913 and the Control_Avg_AUC [5] was 493.471.
Compound `O=C1CC2(CCCC2)CC(=O)N1CCCCN1CCN(c2ncccn2)CC1` [Buspirone] has a Control-VP-MCC ([1]; NPC library, Control AUC minus VP-MCC AUC (therapeutic window)) of 50.6954, a VP-MCC_Avg_AUC [1, 6] of 436.974 and a Control-MCC ([2]; NPC library, Control AUC minus MCC AUC (therapeutic window)) of 50.4353. For the same compound, the MCC26_AUC (MCC26 cells (VN-MCC); [21]) was 427.549, the MCC13_AUC (MCC13 cells (VN-MCC); [21]) was 448.981 and the Control-VN-MCC ([3]; NPC library, Control AUC minus VN-MCC AUC (therapeutic window)) was 50.1753. It also gave a VN-MCC_Avg_AUC [3, 10] of 437.494, an HEK293T_AUC (HEK293T cells; [22]) of 489.604 and an MKL1_AUC (MKL-1 cells (VP-MCC); [21]) of 457.095. For the same compound, the MCC_Avg_AUC [4, 13] was 437.234, the CRL7250_AUC (CRL-7250 cells; [22]) was 487.221 and the NIH3T3_AUC (NIH-3T3 cells; [22]) was 490.08. It also gave a UISO_AUC (UISO cells (VN-MCC); [21]) of 435.953, an MKL2_AUC (MKL-2 cells (VP-MCC); [21]) of 407.552 and an HACAT_AUC (HACAT cells; [22]) of 483.772. For the same compound, the WAGA_AUC (WAGA cells (VP-MCC); [21]) was 446.274 and the Control_Avg_AUC [5, 20] was 487.669.
`[H]/N=C(\N/C(=N/[H])NCCCCCCNC(=N)NC(=N)Nc1ccc(Cl)cc1)Nc1ccc(Cl)cc1` [Chlorhexidine] showed a Control-VP-MCC ([1]; Control AUC minus VP-MCC AUC) of 68.1526, a VP-MCC_Avg_AUC [1, 6] of 374.608 and a Control-VP-MCC [1, 7] of 68.1526. For the same compound, the Control-MCC [2, 8] was 52.5131, the MCC26_AUC (MCC26 cells (VN-MCC); NPC library, qHTS dose-response AUC, MCC26) was 406.333 and the MCC13_AUC (MCC13 cells (VN-MCC); [9]) was 433.192. The Control-VN-MCC ([3]; Control AUC minus VN-MCC AUC) was 36.8736, the VN-MCC_Avg_AUC [3, 10] was 405.887 and the Control-VN-MCC [3, 11] was 36.8736. It also gave an HEK293T_AUC (HEK293T cells; NPC library, qHTS dose-response AUC, HEK293T control) of 398.25, an MKL1_AUC (MKL-1 cells (VP-MCC); [12]) of 377.448 and an MCC_Avg_AUC ([4]; NPC library, mean AUC of all 6 MCC cell lines) of 390.247. For the same compound, the MCC_Avg_AUC [4, 13] was 390.247, the CRL7250_AUC (CRL-7250 cells; [14]) was 454.576 and the NIH3T3_AUC (NIH-3T3 cells; [15]) was 459.651. For the same compound, the UISO_AUC (UISO cells (VN-MCC); [16]) was 378.135, the MKL2_AUC (MKL-2 cells (VP-MCC); [17]) was 345.753 and the HACAT_AUC (HACAT cells; [18]) was 458.563. For the same compound, the WAGA_AUC (WAGA cells (VP-MCC); [19]) was 400.622 and the Control_Avg_AUC [5, 20] was 442.76.
